# Assay results from US8952249B2, “1,4-fullerene addends in photovoltaic cells” (The Regents of the University of California, priority 2010, dated 2015).
# Key:
# [1] = set-up: unit not given here; settings: PCBM analogues described by Hummelen et al.; cited from earlier work
# [2] = Cyclic voltammetry: reduction potentials and energy of the LUMO; assay type: physicochemical; settings: 1,2-dichlorobenzene, Bu4NClO4 (0.1 M), Pt wire counter electrode, 50 mV/s scan rate
# Description: The synthesis of fullerenol was previously reported.^6 From fullerenol, we herein report on the syntheses of a set of derivatives by arylation as described in FIG. 1. In a typical reaction, fullerenol is reacted with a specific substrate (a substituted aryl) used as the solvent in the presence of p-toluene sulfonic acid (TsOH) as the catalyst. Following this procedure we synthesized: PEHOB (FIG. 2) (C60 functionalized with a phenyl group on C1 and an ethylhexyloxybenzene group on C4), PCVM (FIG. 3) (Phenyl on C1 and phenylvaleric acid methyl ester on C4), PTHOB (FIG. 4) (phenyl on C1 and trihexyloxyphenyl on C4), PFOH (FIG. 5) (phenyl on C1 and hydroxyl on C4); PFTFP (FIG. 6) (p-trifluorophenyl on C1 and pentafluorophenyl on C4) and ANP (FIG. 7) (phenyl on C1 and aniline on C4). 1H NMR, 13C NMR, 19F NMR and field desorption (FD) mass spectroscopy confirmed the identity of the products. The adducts were further characterized by cyclic voltammetry (CV) and UV-vis spectroscopy. […] From the first reduction potential calculated by CV we determined the energy of the LUMO. An estimated value of the HOMO was inferred from the onset of the UV-vis spectra. In order to modify the property of the derivatives, we appended (i) long alkyl chains to increase solubility and (ii) electron withdrawing or (iii) electron donating groups to stabilize or destabilize the energy of the LUMO respectively. Due to the spherical shape of C60, heteroatoms or functional groups appended on the fullerene can only affect the energy of the molecular orbitals by induction. Therefore, an electron donating group directly bound to C60 such a methoxy will […] the energy of the LUMO because of the higher electronegativity of the oxygen. […] These values are in agreement with previous reports.^8, 9 Table 1 (see below) summarizes the electrochemical data calculated for all the derivatives. […]
compound,measurement,setting,value
"COC(=O)CCCC1(c2ccccc2)C23c4c5c6c7c8c9c(c%10c%11c2c2c%12c4c4c%13c5c5c7c7c8c8c%14c9c%10c9c%10c%11c2c2c%11c%12c4c4c%12c%13c5c5c7c7c8c8c%14c9c9c%10c2c2c%11c4c4c%12c5c7c5c8c9c2c45)C613 (stereo not shown) [PCBM, [6,6]-phenyl-C61-butyric acid methyl ester]",redox potential,[1],−1.08
same,E1red,[2],−1.056 V vs Fc/Fc+
same,E2red,[2],−1.471 V vs Fc/Fc+
same,E3red,[2],−1.957 V vs Fc/Fc+
